Source: ChEMBL document CHEMBL5356978 (Bioorg Med Chem Lett, 2024)

Biological target: T1, beta-catenin-B-cell lymphoma 9 protein complex (Homo sapiens, UniProt P35222)
T1 sequence (P35222 whole entry): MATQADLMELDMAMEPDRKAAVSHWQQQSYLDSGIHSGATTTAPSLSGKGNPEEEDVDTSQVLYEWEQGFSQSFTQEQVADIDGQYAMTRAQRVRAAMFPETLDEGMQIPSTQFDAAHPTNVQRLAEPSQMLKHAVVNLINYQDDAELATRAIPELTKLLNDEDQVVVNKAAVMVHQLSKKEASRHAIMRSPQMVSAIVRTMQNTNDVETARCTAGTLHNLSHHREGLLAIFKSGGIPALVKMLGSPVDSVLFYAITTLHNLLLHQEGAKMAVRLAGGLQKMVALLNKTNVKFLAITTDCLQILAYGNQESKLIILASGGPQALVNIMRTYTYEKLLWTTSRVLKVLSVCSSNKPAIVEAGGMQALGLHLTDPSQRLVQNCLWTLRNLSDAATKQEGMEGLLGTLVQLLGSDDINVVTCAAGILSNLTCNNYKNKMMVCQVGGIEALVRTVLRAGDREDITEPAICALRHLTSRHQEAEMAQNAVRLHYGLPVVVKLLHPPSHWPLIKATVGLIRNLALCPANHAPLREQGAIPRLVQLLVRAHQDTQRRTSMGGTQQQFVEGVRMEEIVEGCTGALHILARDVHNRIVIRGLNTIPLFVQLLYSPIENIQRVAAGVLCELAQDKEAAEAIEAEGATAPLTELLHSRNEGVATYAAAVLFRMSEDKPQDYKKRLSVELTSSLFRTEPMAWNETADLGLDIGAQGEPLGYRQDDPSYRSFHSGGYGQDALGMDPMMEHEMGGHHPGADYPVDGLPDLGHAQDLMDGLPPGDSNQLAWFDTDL
T1 sequence (O00512 whole entry): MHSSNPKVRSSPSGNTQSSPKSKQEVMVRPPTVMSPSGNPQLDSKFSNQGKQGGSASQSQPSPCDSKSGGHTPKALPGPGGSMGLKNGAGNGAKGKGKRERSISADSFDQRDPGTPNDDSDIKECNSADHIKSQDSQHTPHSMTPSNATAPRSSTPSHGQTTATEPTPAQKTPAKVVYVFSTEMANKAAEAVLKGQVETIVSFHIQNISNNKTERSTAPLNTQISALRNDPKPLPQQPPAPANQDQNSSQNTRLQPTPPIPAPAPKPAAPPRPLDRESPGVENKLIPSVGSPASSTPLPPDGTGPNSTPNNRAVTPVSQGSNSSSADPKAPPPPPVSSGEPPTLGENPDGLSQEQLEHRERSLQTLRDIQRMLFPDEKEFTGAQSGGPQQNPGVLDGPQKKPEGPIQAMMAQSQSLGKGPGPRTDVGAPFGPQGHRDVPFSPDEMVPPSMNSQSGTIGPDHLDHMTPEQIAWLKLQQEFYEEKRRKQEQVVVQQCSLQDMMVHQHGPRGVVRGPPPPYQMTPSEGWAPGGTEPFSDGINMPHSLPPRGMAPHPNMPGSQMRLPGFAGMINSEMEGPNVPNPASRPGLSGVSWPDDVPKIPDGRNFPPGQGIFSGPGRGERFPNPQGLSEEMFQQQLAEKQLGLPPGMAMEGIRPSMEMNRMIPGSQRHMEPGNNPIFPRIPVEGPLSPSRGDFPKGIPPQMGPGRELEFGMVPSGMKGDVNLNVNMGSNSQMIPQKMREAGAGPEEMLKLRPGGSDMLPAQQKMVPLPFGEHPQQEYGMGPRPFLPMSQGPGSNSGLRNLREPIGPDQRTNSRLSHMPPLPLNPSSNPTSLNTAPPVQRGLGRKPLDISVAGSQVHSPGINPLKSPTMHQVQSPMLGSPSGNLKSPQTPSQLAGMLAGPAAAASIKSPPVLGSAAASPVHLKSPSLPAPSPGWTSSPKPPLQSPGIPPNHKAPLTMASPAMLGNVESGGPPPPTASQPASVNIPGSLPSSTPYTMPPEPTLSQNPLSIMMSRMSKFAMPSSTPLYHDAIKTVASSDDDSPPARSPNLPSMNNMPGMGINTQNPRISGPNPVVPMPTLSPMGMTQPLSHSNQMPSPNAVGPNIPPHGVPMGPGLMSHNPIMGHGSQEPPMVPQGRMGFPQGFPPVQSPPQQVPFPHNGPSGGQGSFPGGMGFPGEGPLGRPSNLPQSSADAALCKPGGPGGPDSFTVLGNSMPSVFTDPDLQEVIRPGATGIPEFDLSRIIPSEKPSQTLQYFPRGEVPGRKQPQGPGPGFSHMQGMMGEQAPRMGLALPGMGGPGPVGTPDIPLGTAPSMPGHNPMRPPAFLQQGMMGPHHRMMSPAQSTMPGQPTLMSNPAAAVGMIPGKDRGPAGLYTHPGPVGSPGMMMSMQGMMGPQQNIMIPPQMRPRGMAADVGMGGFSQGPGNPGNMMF
Experiment: Inhibition of full length beta-catenin (unknown origin)/FAM labeled BCL9 (350 to 375 residues) (unknown origin) protein-protein interaction by competitive FP assay
Format: protein-complex assay
Settings: not given

Row | SMILES | IC50 [µM]
1 | COc1ccc(-c2oc3c(-c4ccccc4)c(OC)cc(OC)c3c(=O)c2OC)cc1OC | 12.1
2 | COc1ccc(-c2oc3c(-c4ccc(C(F)(F)F)cc4)c(OC)cc(OC)c3c(=O)c2OC)cc1OC | 8.81
3 | COc1ccc(-c2c(OC)cc(OC)c3c(=O)c(OC)c(-c4ccc(OC)c(OC)c4)oc23)cc1 | 17.3
4 | COc1ccc(-c2oc3c(-c4ccc(F)c(F)c4)c(OC)cc(OC)c3c(=O)c2OC)cc1OC | 5.78
5 | COc1ccc(-c2oc3c(C4CC4)c(OC)cc(OC)c3c(=O)c2OC)cc1OC | 20
6 | COc1ccc(-c2oc3c(C4=CCNCC4)c(OC)cc(OC)c3c(=O)c2OC)cc1OC | 8.92
7 | O=c1c(O)c(-c2ccc(O)c(O)c2)oc2c(-c3ccc(F)c(F)c3)c(O)cc(O)c12 | 3.15
8 | O=c1c(O)c(-c2ccc(O)c(O)c2)oc2c(-c3ccccc3)c(O)cc(O)c12 | 3.83
9 | COC(=O)c1ccc(-c2c(O)cc(O)c3c(=O)c(O)c(-c4ccc(O)c(O)c4)oc23)cc1 | 2.99

Tested on: not listed separately
Experiment: Inhibition of Wnt/beta-catenin signaling pathway in mouse CT26 cells assessed as downregulation of AXIN2 expression incubated for 24 hrs by qPCR analysis
Settings: CT26, 24 h

Row | SMILES | IC50 [µM]
10 | COc1ccc(-c2oc3c(-c4ccccc4)c(OC)cc(OC)c3c(=O)c2OC)cc1OC | 1.11
11 | COc1ccc(-c2oc3c(-c4ccc(C(F)(F)F)cc4)c(OC)cc(OC)c3c(=O)c2OC)cc1OC | 9.2
12 | COc1ccc(-c2c(OC)cc(OC)c3c(=O)c(OC)c(-c4ccc(OC)c(OC)c4)oc23)cc1 | 1.14
13 | COc1ccc(-c2oc3c(-c4ccc(F)c(F)c4)c(OC)cc(OC)c3c(=O)c2OC)cc1OC | 12
14 | COc1ccc(-c2oc3c(C4CC4)c(OC)cc(OC)c3c(=O)c2OC)cc1OC | 2.04
15 | COc1ccc(-c2oc3c(C4=CCNCC4)c(OC)cc(OC)c3c(=O)c2OC)cc1OC | 1.06
16 | O=c1c(O)c(-c2ccc(O)c(O)c2)oc2c(-c3ccc(F)c(F)c3)c(O)cc(O)c12 | 1.45
17 | O=c1c(O)c(-c2ccc(O)c(O)c2)oc2c(-c3ccccc3)c(O)cc(O)c12 | 1.31
18 | COC(=O)c1ccc(-c2c(O)cc(O)c3c(=O)c(O)c(-c4ccc(O)c(O)c4)oc23)cc1 | 5.05

Tested on: CT26
Experiment: Antiproliferative activity against mouse CT26 cells harboring active Wnt/beta-catenin signal assessed as inhibition of cell proliferation by CCK8 assay
Settings: not given

Row | SMILES | IC50 [µM]
19 | COc1ccc(-c2oc3c(-c4ccccc4)c(OC)cc(OC)c3c(=O)c2OC)cc1OC | 15.1
20 | COc1ccc(-c2oc3c(-c4ccc(C(F)(F)F)cc4)c(OC)cc(OC)c3c(=O)c2OC)cc1OC | 16.2
21 | COc1ccc(-c2c(OC)cc(OC)c3c(=O)c(OC)c(-c4ccc(OC)c(OC)c4)oc23)cc1 | 27.8
22 | COc1ccc(-c2oc3c(-c4ccc(F)c(F)c4)c(OC)cc(OC)c3c(=O)c2OC)cc1OC | 32.1
23 | COc1ccc(-c2oc3c(C4CC4)c(OC)cc(OC)c3c(=O)c2OC)cc1OC | 3.39
24 | COc1ccc(-c2oc3c(C4=CCNCC4)c(OC)cc(OC)c3c(=O)c2OC)cc1OC | 12.9
25 | O=c1c(O)c(-c2ccc(O)c(O)c2)oc2c(-c3ccc(F)c(F)c3)c(O)cc(O)c12 | 7.1
26 | O=c1c(O)c(-c2ccc(O)c(O)c2)oc2c(-c3ccccc3)c(O)cc(O)c12 | 3.32
27 | COC(=O)c1ccc(-c2c(O)cc(O)c3c(=O)c(O)c(-c4ccc(O)c(O)c4)oc23)cc1 | 15.1
